Where two headings read alike, the source gives them in different places.
Key:
[1] = system: ConA-induced T murine splenic lymphocytes; assay: ConA-induced T-cell (splenic lymphocyte) proliferation, CCK-8; type: cell-based, BALB/c mice; details: Mus musculus, 48 h, read-out: IC50 ConA-Induced T-Cell Proliferation
Protocol: (§1) The isolated compounds (1–8) were evaluated for their immunosuppressive activities against the proliferation of ConA-induced T and LPS-induced B murine splenic lymphocytes, according to previously described protocols. […] The cytotoxicity of immunosuppressive Compounds 2 and 4–6 was tested in murine splenocyte cultures for 72 h using the tetrazolium salt-based CCK-8 assay. […] Thus, we selected this particular cytochalasin for the mechanism of action studies.
(§2) Spleen cells were collected from BALB/c mice under aseptic conditions, plated in a 96-well plate at a density of 1.5 × 10^6 cells/well and activated by Con A (5 μg/mL) or LPS (10 μg/mL) in the presence of various concentrations of compounds or cyclosporine A (CsA) at 37 °C and 5% CO2 for 48 h. Then, 20 μL CCK-8 was added to each well, 4 h before the end of the incubation. Absorbance at OD450 was measured on an ELISA reader, and the IC50 value was calculated from the correlation curve between the compound concentration and the OD450.

[2] = system: LPS-induced B murine splenic lymphocytes; assay: LPS-induced B-cell (splenic lymphocyte) proliferation, CCK-8; type: cell-based, BALB/c mice; details: Mus musculus, 48 h, read-out: IC50 LPS-Induced B-Cell Proliferation
Protocol: as §1, §2

[3] = Cytotoxicity / cell viability in normal splenocytes, CCK-8, 72 h; type: cell-based, BALB/c mice; details: BALB/c, mouse, mean ± SD (n = 7), read-out: Cytotoxicity IC50, murine splenocytes
Protocol: as §1
(§3) Cell viability was evaluated using the CCK-8 method. Spleen cells were plated in a 96-well plate at a density of 1.5 × 10^6 cells/well. Then, the cells were incubated with various concentrations of compounds or 0.1% DMSO at 37 °C and 5% CO2 for 72 h. Proliferation was measured using the CCK-8 assay, as described above. Cyclosporin A (CsA) and cytochalasin D were used as positive controls.

calcineurin (CN) = calcineurin (CN) (Homo sapiens, UniProt P63098+Q08209); assay: CN phosphatase assay (p-NPP substrate, spectrophotometric); type: biochemical; details: 20 mM p-NPP substrate, pH 7.4; read-out: IC50 calcineurin (CN) inhibition
Sequence of calcineurin (CN) (P63098 whole entry, other chains not shown): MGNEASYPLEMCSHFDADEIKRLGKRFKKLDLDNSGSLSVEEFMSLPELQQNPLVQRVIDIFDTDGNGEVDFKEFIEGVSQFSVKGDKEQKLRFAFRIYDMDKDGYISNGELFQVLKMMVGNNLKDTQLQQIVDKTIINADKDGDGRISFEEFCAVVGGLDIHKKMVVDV
Protocol: A spectrophotometric assay was used to determine the activities of CN with 20 mM p-nitrophenyl phosphate (p-NPP) as the substrate in 1 mM CaCl2, 0.5 mM MnCl2, 2 mM CaM, 2 mM CNB, 1 mM DTT, 0.1 mg/mL bovine serum albumin (BSA), and 50 mM Tris-HCl (pH 7.4) at 4 °C. The reaction was initiated by the addition of CNA, various concentrations of compounds (6.25, 12.5, 25, 50 or 100 μM) were added, and the solution was preincubated for 10 min at 4 °C. The OD410 value was measured, and the inhibitory concentration (IC50) was calculated. DMSO (2%) was used as a vehicle control. CsA was used as a positive control.

NFAT1 dephosphorylation = assay: Western blot of ConA-stimulated NFAT1 / NFAT-P in splenocytes; type: cell-based, BALB/c mice; details: 50 μM
Protocol: (§4) The effect of 2 on ConA-stimulated NFAT1 and NFAT-P expression was determined by Western blotting. […] In contrast, in the ConA-stimulated cells in the absence of 2, the dephosphorylated form of NFAT1 was detected, as well as the phosphorylated form. […] After 48 h of stimulation with 5 μg/mL Con A, the fluorescent NFAT1 translocated to the nucleus. […] In addition, 2 formed hydrophobic interactions with residues ILE-436, ILE-474, ARG-477, VAL-490, and VAL-498 and intermolecular interactions with residues THR-126, GLN-127, ASP-313, and PRO-340. Therefore, the immunosuppressive activity of 2 is possibly, at least in part, mediated via CaN/NFAT signaling pathway-regulated Con A-stimulated activation of splenocytes (Figure 7), highlighting its potential for use as an effective noncytotoxic natural immunosuppressant.
Splenocytes were washed with PBS and lysed in PMSF lysate. After centrifugation at 12,000 rpm for 5 min, the protein concentration was determined using a BSA Protein Assay Kit. Protein lysates were separated using 10% sodium dodecyl sulfate–polyacrylamide gel electrophoresis (SDS–PAGE) and transferred to polyvinylidene difluoride (PVDF) membranes. After blocking, the membranes were incubated overnight with the respective primary antibodies against NFAT1, NFAT-P, and β-actin in 5% BSA, and the secondary antibody was horseradish peroxidase (HRP)-conjugated goat anti-rabbit IgG. […]

NFAT1 translocation = assay: Immunofluorescence of NFAT1 nuclear translocation in ConA-stimulated splenocytes; type: cell-based, BALB/c mice; details: Con A 5 μg/mL, 48 h
Protocol: as §4
Splenocytes were seeded in a 24-well plate at a density of 5 × 10^6 cells/well, incubated with various concentrations of Compound 2 or CsA, and then activated by culturing with Con A (5 μg/mL) for 48 h. After treatment, the cells were fixed with 4% paraformaldehyde for 30 min, permeabilized in 0.5% Triton X-100 for 15 min, blocked with 5% BSA for 1 h, and then incubated overnight in the respective primary antibody; NFAT1 (D43B1) XP® Rabbit antibody was used at a 1:100 dilution in PBS. The corresponding fluorescent anti-rabbit IgG (H+L) secondary antibody was added for 1 h. […]

IL-2 mRNA = IL-2 mRNA expression by real-time quantitative PCR in ConA-stimulated splenocytes; type: cell-based, BALB/c mice; details: q-PCR, 48 h
Protocol: as §4
The obtained total RNA (2 µg) was used for cDNA synthesis with a Servicebio®RT First Strand cDNA Synthesis Kit with random primers, according to the manufacturer’s instructions. qPCR was performed ith SYBR Green qPCR Master Mix (High ROX) using ABI StepOne Plus Real-time Detection System and β-actin as internal control. […] The expression levels of genes were normalized to the expression of β-actin mRNA and analyzed using the delta-delta CT method (2^−ΔΔCT).

IL-2 = IL-2 ELISA of culture supernatants of ConA-stimulated splenocytes; type: cell-based, BALB/c mice
Protocol: as §4
Splenocytes were treated as described in the RT–qPCR section, and then the IL-2 levels in the obtained culture supernatants were measured using an enzyme-linked immunosorbent assay (ELISA) kit, according to the manufacturer’s instructions. Cytokine standard curves were used to calculate the amount of IL-2, and the absorbance of each well was read at OD450 using an ELISA reader.

murine splenocytes = assay: Cytotoxicity / cell viability in normal splenocytes, CCK-8, 72 h; type: cell-based, BALB/c mice; details: mean ± SD (n = 7)
Protocol: as §1, §3

Row | SMILES | IC50 [1] | IC50 [2] | IC50 at 72 h [3] | other results
1 | C=C1C(C)C2C(Cc3ccccc3)NC(=O)C23C(O)C2C=C(C)CC(C)CC4OC1C3C42 (stereo not drawn) [Compound 1, Phomoparagin A] | > 200 µM | > 200 µM | – | –
2 | C=C1C(C)C2C(Cc3ccccc3)NC(=O)C23C(OC(C)=O)C2C=C(C)CC(C)CC(O)C2C3C1O (stereo not drawn) [Compound 2, Phomoparagin B] | 21.6 ± 1.7 µM | 78.5 ± 1.3 µM | 111.7 ± 1.1 µM | IC50 (calcineurin (CN)): 17.9 ± 0.4 µM; Effect on ConA-stimulated dephosphorylation of NFAT (NFAT1 dephosphorylation): strongly inhibited the dephosphorylation of NFAT; Effect on Con A-stimulated translocation of NFAT1 from cytoplasm to nucleus (NFAT1 translocation): blocked the Con A-stimulated translocation of NFAT1 from the cytoplasm to the nucleus in a dose-dependent manner; Transcription level of Con A-stimulated IL-2 mRNA (IL-2 mRNA): decreased with increasing concentrations of 2; IL-2 protein level (secretion) (IL-2): confirmed the effects of 2 at the IL-2 protein level
3 | C=C1C(C)C2C(Cc3ccccc3)NC(=O)C23C=C2C=C(C)CC(C)CC(O)C2C3C1O (stereo not drawn) [Compound 3, Phomoparagin C] | > 200 µM | > 200 µM | – | –
4 | C=C1C(C)C2C(Cc3ccccc3)NC(=O)C23C(O)C2C=C(C)CC(C)CC(O)C2C3C1O (stereo not drawn) [Compound 4, phomopchalasin A] | 32.8 ± 2.4 µM | 145 ± 2.2 µM | 373.7 ± 3.3 µM | –
5 | C=C1C(C)C2C(Cc3ccccc3)NC(=O)C23C(O)C(O)C2C(C)=CC(C)CC4OC1C3C42 (stereo not drawn) [Compound 5, phomopchalasin B] | 31.2 ± 2.5 µM | 154.4 ± 0.4 µM | 84.4 ± 0.3 µM | –
6 | C=C1C(C)C2C(Cc3ccccc3)NC(=O)C23C(OC(C)=O)C=CC(C)(O)CC(C)CC=CC3C1O (stereo not drawn) [Compound 6, cytochalasin H] | 11.2 ± 0.3 µM | 103 ± 1.1 µM | 42.2 ± 1.7 µM | IC50 (murine splenocytes): 42.2 ± 1.7 µM
7 | C=C1C(C)C2C(Cc3ccccc3)NC(=O)C23C(O)C=CC(C)(O)CC(C)CC=CC3C1O (stereo not drawn) [Compound 7, cytochalasin J] | – | – | – | IC50 ([1]; Con A 5 μg/mL, CCK-8, mean ± SD, three experiments): > 200 µM; IC50 ([2]; LPS 10 μg/mL, CCK-8, mean ± SD, three experiments): > 200 µM
8 | C=C1C(C)C2C(Cc3ccccc3)NC(=O)C23C(=O)C=CC(C)(O)CC(C)CC=CC3C1O (stereo not drawn) [Compound 8, fragiformin B] | > 200 µM | > 200 µM | – | –
9 | C=C1[C@@H](C)[C@H]2[C@H](Cc3ccccc3)NC(=O)[C@]23[C@H](OC(C)=O)/C=C/[C@@](C)(O)C(=O)[C@@H](C)C/C=C/[C@H]3[C@@H]1O [Cytochalasin D, cytochalasin D, reference compound] | – | – | – | IC50 [3]: 1 µM
